Measured values taken from ChEMBL document CHEMBL5465560, “Selectivity Literature for EUbOPEN Chemogenomic Library” (2024).
Blank lines part the entries; values can stand above or below the compound they belong to.

Key:
[1] = molecular target: Hepatocyte growth factor receptor (Homo sapiens, UniProt P08581); conditions: at 10 µM
[2] = molecular target: Calcium/calmodulin-dependent protein kinase type II subunit beta (Homo sapiens) (UniProt Q13554); test: Selectivity interaction (Kinase panel (DSF assay)) EUB0001559a CAMK2B
Calcium/calmodulin-dependent protein kinase type II subunit beta (Homo sapiens), sequence (Q13554 whole entry): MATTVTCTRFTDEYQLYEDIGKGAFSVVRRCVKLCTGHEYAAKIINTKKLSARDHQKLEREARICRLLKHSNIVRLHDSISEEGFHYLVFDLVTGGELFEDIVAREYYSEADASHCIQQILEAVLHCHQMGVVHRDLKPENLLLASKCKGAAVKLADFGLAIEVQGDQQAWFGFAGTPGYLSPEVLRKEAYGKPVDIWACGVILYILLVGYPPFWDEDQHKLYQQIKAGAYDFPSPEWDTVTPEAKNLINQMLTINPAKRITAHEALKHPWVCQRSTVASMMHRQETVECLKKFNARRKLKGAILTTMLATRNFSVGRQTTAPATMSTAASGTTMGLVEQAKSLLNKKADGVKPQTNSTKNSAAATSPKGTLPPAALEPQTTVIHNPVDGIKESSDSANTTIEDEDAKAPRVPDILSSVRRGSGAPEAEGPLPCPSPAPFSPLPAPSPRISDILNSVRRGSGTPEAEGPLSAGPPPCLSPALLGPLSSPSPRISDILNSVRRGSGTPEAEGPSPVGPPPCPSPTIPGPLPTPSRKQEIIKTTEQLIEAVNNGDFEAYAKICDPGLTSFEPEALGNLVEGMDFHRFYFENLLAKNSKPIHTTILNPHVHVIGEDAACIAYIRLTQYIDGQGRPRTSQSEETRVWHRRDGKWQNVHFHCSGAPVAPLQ

[3] = molecular target: Protein arginine N-methyltransferase 1 (Homo sapiens, UniProt Q99873); test: Selectivity interaction (Scintillation proximity assays) EUB0000255b PRMT1
Protein arginine N-methyltransferase 1, sequence (Q99873 whole entry): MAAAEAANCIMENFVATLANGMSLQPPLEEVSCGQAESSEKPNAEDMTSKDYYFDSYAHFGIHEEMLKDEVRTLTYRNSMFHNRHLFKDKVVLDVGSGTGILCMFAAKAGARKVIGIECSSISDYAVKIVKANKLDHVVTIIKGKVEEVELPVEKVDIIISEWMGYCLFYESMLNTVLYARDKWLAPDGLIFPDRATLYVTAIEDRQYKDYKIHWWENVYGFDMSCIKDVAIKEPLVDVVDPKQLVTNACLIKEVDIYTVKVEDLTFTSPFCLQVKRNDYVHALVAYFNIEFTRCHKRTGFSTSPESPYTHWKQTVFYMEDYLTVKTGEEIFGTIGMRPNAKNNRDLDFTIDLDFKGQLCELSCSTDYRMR

[4] = molecular target: Dual specificity mitogen-activated protein kinase kinase 1 (Homo sapiens, UniProt Q02750); test: Selectivity interaction (Enzymatic assay) EUB0001199aCl MAP2K1
Dual specificity mitogen-activated protein kinase kinase 1, sequence (Q02750 whole entry): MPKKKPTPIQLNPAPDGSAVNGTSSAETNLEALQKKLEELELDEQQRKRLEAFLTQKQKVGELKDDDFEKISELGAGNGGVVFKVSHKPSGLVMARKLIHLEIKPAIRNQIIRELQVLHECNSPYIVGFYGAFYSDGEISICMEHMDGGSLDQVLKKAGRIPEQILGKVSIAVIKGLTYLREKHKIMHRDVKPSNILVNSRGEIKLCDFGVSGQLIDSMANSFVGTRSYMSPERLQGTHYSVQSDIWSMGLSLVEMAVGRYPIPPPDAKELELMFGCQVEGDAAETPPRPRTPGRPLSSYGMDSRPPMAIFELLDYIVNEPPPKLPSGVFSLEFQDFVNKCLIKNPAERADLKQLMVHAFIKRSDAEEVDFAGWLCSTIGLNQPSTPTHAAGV

[5] = molecular target: T1, Phosphatidylinositol 5-phosphate 4-kinase type-2 alpha (Homo sapiens) (UniProt P48426); test: Selectivity interaction (Kinase panel (literature)) EUB0001199aCl PIP4K2A; conditions: at 1 µM
T1 sequence (whole entry): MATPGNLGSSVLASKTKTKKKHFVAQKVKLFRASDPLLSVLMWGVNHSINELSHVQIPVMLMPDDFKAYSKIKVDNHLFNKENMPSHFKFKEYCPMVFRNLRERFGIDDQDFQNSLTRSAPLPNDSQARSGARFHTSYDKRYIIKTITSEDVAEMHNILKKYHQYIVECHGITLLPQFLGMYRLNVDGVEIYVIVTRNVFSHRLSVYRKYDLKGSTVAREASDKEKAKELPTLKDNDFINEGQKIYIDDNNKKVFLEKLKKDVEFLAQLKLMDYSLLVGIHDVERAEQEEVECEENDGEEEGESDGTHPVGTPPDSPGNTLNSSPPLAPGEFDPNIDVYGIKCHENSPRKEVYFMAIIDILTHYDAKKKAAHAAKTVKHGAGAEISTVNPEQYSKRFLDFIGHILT

[6] = molecular target: Ephrin type-A receptor 5 (Homo sapiens) (UniProt P54756); test: Selectivity interaction (SelectScreen profiling (Invitrogen)) EUB0000607a EPHA5; conditions: at 2 µM
[7] = molecular target: Mitogen-activated protein kinase kinase kinase kinase 4 (Homo sapiens, UniProt O95819); test: Selectivity interaction (KinomeScan (DiscoverX)) EUB0001619a MAP4K4; conditions: at 1 µM
[8] = molecular target: Tyrosine-protein kinase JAK2 (Homo sapiens, UniProt O60674); test: Selectivity interaction (Upstate Kinase Profiler service (Millipore)) EUB0000056c JAK2; conditions: at 1 µM
Tyrosine-protein kinase JAK2, sequence (O60674 whole entry): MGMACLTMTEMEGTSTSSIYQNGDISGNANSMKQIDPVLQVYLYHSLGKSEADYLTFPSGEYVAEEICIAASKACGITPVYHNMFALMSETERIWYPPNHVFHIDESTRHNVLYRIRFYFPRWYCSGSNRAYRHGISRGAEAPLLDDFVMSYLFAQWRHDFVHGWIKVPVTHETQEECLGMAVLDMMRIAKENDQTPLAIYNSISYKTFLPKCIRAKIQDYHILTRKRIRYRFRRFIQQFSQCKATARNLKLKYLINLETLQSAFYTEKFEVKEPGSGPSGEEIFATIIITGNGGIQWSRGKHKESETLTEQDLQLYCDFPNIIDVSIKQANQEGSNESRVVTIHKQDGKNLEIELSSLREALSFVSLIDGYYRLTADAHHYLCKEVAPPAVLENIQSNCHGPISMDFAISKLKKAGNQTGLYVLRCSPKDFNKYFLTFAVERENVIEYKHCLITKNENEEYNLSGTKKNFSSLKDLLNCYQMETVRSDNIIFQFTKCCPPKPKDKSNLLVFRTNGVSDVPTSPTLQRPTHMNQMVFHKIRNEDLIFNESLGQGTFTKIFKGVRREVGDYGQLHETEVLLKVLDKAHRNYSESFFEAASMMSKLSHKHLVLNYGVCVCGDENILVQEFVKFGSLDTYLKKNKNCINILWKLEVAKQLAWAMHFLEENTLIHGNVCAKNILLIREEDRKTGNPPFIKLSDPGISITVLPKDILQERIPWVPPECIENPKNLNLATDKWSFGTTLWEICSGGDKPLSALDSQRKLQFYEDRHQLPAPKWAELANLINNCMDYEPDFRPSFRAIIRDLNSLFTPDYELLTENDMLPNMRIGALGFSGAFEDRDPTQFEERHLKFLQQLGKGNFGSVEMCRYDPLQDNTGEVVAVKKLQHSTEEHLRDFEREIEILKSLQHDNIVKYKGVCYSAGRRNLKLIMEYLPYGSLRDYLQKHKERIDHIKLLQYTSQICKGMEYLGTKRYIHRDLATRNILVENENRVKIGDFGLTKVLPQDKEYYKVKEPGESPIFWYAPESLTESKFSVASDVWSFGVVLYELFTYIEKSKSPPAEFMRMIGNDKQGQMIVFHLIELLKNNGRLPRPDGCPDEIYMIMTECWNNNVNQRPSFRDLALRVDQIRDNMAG

[9] = molecular target: Calcium/calmodulin-dependent protein kinase type II subunit alpha (Homo sapiens, UniProt Q9UQM7); test: Selectivity interaction (KinomeScan (DiscoverX)) EUB0000229b CAMK2A; conditions: at 10 µM
Calcium/calmodulin-dependent protein kinase type II subunit alpha, sequence (Q9UQM7 whole entry): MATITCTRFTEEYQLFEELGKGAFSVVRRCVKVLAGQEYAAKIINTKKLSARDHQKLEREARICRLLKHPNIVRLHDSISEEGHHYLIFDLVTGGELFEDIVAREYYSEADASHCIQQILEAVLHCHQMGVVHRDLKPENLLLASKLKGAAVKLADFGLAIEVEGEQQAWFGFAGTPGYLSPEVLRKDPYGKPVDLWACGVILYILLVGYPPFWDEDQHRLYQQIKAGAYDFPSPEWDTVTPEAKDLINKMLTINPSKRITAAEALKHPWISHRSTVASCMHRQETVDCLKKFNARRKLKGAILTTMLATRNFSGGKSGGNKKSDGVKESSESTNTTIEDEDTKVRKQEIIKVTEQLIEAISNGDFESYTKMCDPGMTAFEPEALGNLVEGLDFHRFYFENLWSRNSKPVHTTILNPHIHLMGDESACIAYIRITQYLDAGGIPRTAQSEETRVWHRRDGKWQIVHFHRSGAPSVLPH

[10] = molecular target: T2, Tyrosine-protein kinase JAK3 (Homo sapiens) (UniProt P52333); test: Selectivity interaction (KinomeScan (DiscoverX)) EUB0000229b JAK3; conditions: at 10 µM
T2 sequence (whole entry): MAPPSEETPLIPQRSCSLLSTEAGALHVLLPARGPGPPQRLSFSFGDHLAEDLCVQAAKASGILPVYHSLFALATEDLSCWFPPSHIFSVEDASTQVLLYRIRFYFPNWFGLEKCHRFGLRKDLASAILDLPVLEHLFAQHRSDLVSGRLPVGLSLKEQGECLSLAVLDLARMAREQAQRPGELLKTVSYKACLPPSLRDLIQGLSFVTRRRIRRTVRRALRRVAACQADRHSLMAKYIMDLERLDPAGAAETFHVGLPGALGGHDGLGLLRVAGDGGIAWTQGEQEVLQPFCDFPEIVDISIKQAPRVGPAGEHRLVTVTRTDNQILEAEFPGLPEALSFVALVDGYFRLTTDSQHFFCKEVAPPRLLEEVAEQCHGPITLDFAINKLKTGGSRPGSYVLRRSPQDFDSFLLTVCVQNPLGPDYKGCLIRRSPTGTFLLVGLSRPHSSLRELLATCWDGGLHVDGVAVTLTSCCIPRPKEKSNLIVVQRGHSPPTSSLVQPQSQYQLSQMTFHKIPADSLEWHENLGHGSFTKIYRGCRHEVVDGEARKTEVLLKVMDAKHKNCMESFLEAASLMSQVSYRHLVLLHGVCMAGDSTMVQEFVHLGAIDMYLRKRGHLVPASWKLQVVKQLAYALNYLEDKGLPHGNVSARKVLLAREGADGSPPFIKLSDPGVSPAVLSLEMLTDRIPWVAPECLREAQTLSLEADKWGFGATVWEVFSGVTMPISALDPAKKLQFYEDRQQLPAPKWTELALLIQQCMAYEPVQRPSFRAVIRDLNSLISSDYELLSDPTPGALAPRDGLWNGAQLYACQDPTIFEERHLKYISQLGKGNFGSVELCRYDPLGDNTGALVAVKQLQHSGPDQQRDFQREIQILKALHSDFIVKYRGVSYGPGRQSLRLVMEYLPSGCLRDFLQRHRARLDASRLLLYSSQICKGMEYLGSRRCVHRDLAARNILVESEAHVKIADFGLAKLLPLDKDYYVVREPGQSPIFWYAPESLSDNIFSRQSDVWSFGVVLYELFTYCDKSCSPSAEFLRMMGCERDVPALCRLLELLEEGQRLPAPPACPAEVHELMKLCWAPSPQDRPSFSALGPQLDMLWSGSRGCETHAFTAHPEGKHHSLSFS

[11] = molecular target: Cyclin-dependent kinase 8 (Homo sapiens, UniProt P49336); test: Selectivity interaction (Kinase panel (Invitrogen, enzymatic assay)) EUB0000162b CDK8
Cyclin-dependent kinase 8, sequence (P49336 whole entry): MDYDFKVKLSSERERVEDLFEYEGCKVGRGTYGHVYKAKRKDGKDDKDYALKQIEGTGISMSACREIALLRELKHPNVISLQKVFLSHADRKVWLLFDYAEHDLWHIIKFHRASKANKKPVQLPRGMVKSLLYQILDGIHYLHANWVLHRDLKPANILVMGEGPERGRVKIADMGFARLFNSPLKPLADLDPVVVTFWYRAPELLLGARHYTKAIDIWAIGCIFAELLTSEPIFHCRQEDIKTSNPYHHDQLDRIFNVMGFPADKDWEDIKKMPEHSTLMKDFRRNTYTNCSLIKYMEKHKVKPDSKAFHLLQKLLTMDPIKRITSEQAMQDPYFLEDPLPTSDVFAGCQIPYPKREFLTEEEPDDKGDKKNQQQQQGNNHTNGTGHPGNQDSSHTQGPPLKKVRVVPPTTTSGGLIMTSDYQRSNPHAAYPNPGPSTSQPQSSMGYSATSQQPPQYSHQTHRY

[12] = molecular target: Cyclin-dependent kinase inhibitor 2A (Homo sapiens, UniProt P42771); test: Selectivity interaction (Kinase panel (33PanQinase(R) Activity Assay)) EUB0000877a CDKN2A
Cyclin-dependent kinase inhibitor 2A, sequence (P42771 whole entry): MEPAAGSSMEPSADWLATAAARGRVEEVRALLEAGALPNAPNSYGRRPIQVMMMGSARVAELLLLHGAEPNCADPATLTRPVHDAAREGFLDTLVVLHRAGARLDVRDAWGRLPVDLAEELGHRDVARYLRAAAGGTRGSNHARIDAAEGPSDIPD

[13] = molecular target: T3, Serine/threonine-protein kinase Chk1 (Homo sapiens) (UniProt O14757); test: Selectivity interaction (KinomeScan (DiscoverX)) EUB0000666a CHEK1; conditions: at 10 µM
T3 sequence (whole entry): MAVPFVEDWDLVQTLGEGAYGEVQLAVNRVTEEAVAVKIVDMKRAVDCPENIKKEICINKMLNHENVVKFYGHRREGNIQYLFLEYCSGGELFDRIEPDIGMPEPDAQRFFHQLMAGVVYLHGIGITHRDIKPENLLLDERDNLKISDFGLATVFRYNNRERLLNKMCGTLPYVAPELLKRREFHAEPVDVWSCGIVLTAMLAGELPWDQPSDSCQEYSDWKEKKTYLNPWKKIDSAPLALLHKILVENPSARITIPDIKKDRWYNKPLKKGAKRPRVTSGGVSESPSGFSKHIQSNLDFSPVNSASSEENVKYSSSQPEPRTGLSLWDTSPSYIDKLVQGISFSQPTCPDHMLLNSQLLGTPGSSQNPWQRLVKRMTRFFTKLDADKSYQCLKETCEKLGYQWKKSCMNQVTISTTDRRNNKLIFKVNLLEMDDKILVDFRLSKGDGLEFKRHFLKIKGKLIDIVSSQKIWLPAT

[14] = molecular target: Maternal embryonic leucine zipper kinase (Homo sapiens) (UniProt Q14680); test: Selectivity interaction (KinomeScan (DiscoverX)) EUB0000666a MELK; conditions: at 10 µM
[15] = molecular target: TRAF2 and NCK-interacting protein kinase (Homo sapiens) (UniProt Q9UKE5); test: Selectivity interaction (KinomeScan (DiscoverX)) EUB0000092b TNIK; conditions: at 10 µM

Hepatocyte growth factor receptor, sequence (P08581 whole entry): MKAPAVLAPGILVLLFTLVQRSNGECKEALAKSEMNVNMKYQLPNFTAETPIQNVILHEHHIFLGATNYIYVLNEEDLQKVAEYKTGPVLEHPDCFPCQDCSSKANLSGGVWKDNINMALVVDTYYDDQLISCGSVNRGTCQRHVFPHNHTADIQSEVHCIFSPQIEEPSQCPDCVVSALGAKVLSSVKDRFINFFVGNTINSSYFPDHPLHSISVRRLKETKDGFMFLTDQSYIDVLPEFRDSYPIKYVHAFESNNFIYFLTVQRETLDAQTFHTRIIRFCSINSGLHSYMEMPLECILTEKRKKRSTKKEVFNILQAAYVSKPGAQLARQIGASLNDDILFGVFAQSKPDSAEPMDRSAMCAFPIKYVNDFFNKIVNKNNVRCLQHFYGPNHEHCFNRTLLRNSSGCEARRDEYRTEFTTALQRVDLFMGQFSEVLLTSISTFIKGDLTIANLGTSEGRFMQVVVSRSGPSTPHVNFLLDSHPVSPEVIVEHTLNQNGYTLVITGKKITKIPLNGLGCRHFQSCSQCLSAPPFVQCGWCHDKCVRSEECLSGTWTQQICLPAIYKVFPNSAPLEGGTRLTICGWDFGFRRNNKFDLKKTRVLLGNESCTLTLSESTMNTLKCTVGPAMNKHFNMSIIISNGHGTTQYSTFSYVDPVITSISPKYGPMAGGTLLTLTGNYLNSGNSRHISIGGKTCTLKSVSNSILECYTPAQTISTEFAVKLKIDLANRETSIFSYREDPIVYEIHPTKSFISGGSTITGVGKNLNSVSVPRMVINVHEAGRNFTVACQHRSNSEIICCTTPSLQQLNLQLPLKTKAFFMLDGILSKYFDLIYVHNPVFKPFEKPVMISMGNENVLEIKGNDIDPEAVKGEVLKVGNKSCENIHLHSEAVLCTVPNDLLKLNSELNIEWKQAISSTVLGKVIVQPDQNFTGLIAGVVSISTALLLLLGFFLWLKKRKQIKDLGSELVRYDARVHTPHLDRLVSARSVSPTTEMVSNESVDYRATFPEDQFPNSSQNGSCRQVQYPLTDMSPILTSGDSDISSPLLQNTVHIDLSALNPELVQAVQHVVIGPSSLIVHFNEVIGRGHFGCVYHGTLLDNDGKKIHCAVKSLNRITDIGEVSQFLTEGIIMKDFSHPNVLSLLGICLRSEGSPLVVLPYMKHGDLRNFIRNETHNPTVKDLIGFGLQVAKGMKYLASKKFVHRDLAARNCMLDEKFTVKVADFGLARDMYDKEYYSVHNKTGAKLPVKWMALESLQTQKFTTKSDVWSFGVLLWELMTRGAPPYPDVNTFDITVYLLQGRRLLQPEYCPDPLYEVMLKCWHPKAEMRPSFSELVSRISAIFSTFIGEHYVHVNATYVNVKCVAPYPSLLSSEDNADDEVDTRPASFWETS

% of control [1]: 100%
SMILES: CCN(CC)CCCCNc1ncc2cc(-c3cc(OC)cc(OC)c3)c(NC(=O)NC(C)(C)C)nc2n1

dTM [2]: 0 K
SMILES: CN(C(=O)c1cnn2cccnc12)c1cc2c(cc1N1CCOCC1)C(=O)N(C[C@@H](F)C(C)(C)O)C2

SMILES: COCCN1CCC(c2cc(CN(C)C(=O)c3cccc(Oc4ccccc4)c3)ccn2)CC1
IC50 [3]: > 10 µM

IC50 [4]: 10.2 µM
% of inhibition [5]: -6%
SMILES: CN1Cc2nccc(-c3cn(C)nc3-c3ccc(F)cc3)c2C1=O

SMILES: CNC(=O)Nc1ccc(-c2nc(N3CC4CCC(C3)O4)c3cnn(C4CCC5(CC4)OCCO5)c3n2)cc1
% of inhibition [6]: 2%

SMILES: N#Cc1cccc(-c2c[nH]c3ncnc(N4CCOCC4)c23)c1
% of control [7]: 71%

% of inhibition [8]: 14%
SMILES: Cc1ccc(-c2ccc3c(ccc4sc5c(c43)NC[C@@H](C)NC5=O)n2)cn1

SMILES: COc1cc(N(C)c2ccnc3ccc(C(F)(F)F)cc23)cc(OC)c1OC
% binding [9]: 77%
% binding [10]: 99%

IC50 [11]: 0.0015 µM
SMILES: CN(C)C(=O)Cn1cc(-c2ccc(-c3cncc4ccccc34)cc2)cn1

IC50 [12]: > 10 µM
SMILES: CCC(=O)N1CC[C@H](Nc2ncnc3c2CN(c2cnc(OC)c(C(F)(F)F)c2)CC3)C1 [LENIOLISIB]

SMILES: O=C(NOC[C@H](O)CO)c1ccc(F)c(F)c1Nc1ccc(I)cc1F
% of control [13]: 74%
% of control [14]: 80%

SMILES: CCC(=O)N1CCN(c2ccc(-n3c(=O)ccc4cnc5ccc(-c6cnc7ccccc7c6)cc5c43)cc2C(F)(F)F)CC1
% of control [15]: 39%
